Patent US8580812B2, “Heteroaryl amide analogues as P2X7 antagonists” (H. Lundbeck A/S, priority 2007, dated 2013)
pIC50: −log10 of the molar value.

These molecules were tested against T1, P2X7 (Homo sapiens, UniProt Q99572) (assay: High Throughput P2X7 Calcium Mobilization Assay (Example 4A), antagonist activity). Conditions: SH-SY5Y cells, 50% decrease in fluorescence response of cells exposed to 80 μM BzATP.
T1 construct: host or cells: SH-SY5Y
T1 sequence (Q99572 1-595): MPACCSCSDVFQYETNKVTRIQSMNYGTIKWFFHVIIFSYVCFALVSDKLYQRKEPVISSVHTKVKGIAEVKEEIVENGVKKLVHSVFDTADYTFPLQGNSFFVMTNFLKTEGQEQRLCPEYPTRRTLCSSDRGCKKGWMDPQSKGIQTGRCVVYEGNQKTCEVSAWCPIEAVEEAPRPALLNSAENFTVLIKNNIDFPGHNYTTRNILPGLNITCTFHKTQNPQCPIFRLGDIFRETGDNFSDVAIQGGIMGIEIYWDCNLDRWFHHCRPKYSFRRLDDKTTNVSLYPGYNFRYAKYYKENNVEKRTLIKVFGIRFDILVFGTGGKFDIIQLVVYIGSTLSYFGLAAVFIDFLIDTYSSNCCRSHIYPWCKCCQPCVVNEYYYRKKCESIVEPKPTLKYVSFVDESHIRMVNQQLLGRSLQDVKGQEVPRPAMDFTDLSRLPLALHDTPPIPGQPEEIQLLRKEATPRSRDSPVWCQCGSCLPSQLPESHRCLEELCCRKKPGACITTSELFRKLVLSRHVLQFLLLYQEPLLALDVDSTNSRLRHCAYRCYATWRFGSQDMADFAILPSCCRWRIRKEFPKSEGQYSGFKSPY
Type: cell-based
Description: A. High Throughput P2X7 Calcium Mobilization Assay
SH-SY5Y cells, ATCC Number CRL-2266, (American Type Culture Collection, Manassas, Va.) are cultured under DMEM/High medium supplemented with 10% FBS, and 10 mM HEPES (Invitrogen Corp., Carlsbad, Calif.) in 5% CO2 and at 37° C. One day prior to the experiment, cells are plated at a density of 100,000 cells/well in a 96 well black/clear TC plate (Corning® Costar®, Sigma-Aldrich Co., St. Louis, Mo.). At the beginning of the experiment, the culture medium is removed and cells are incubated with 50 μL of 2.3 μM Fluo-4 AM dye (Invitrogen Corp.) in the assay solution (5 mM KCl, 9.6 mM NaH2PO4.H2O, 25 mM HEPES, 280 mM Sucrose, 5 mM Glucose, and 0.5 mM CaCl2; pH is adjusted to 7.4 with NaOH) for an hour at 37° C. After one hour dye incubation, wells are rinsed once with 50 μL assay solution, and are then incubated for an hour at room temperature with 100 μL assay solution containing the test compound. The final concentration of test compound generally ranges from 1 to 2500 nM; for positive control cells, no test compound is added. After the one hour incubation, plates are transferred to a FLIPR^TETRA instrument (Molecular Devices, Sunnyvale, Calif.) for calcium mobilization analysis.
For determination of antagonist activity, 50 μL of P2X7 agonist (2′(3′)-O-(4-benzoyl-benzoyl)adenosine 5′-triphosephate (BzATP; Sigma-Aldrich) in the assay solution is transferred using the FLIPR into the plate, such that the final agonist concentration is 80 μM (about EC50). In negative control cells, 50 μL of assay solution without agonist is added at this stage. The peak fluorescence signal over a 2 minute period is then measured.
First, the average maximum relative fluorescent unit (RFU) response from the negative control wells (no agonist) is subtracted from the maximum response detected for each of the other experimental wells. Second, average maximum RFU response is calculated for the positive control wells (agonist wells). Then, percent inhibition for each compound tested is calculated using the equation: Percent Inhibition=100−100×(Peak Signal in Test Cells/Peak Signal in Control Cells) The % inhibition data is plotted as a function of test compound concentration and test compound IC50 is determined using, for example, KALEIDAGRAPH software (Synergy Software, Reading, Pa.) best fit of the data to the equation: y=m1*(1/(1+(m2/m0)^m3)) where y is the percent inhibition, m0 is […], m1 is the maximum RFU, m2 corresponds to the test compound IC50 (the concentration required to provide a 50% decrease, relative to the response observed in the presence of agonist and without antagonist) and m3 is the Hill coefficient.

| Compound | pIC50 |
| --- | --- |
| CN(C(=O)c1cc2c(C(=O)NCC34CC5CC(CC(C5)C3)C4)cccn2n1)C1CCOCC1 [Compound 37, 4-N-(adamantan-1-ylmethyl)-2-N-methyl-2-N-(tetrahydro-2H-pyran-4-yl)pyrazolo[1,5-a]pyridine-2,4-dicarboxamide] | ≥ 5.70 |
| CN(C(=O)c1cc2c(C(=O)NCC34CC5CC(CC(C5)C3)C4)cccn2n1)C1CCOC1 (stereo not shown) [Compound 28, 4-N-(adamantan-1-ylmethyl)-2-N-methyl-2-N-(tetrahydrofuran-3-yl)pyrazolo[1,5-a]pyridine-2,4-dicarboxamide] | ≥ 5.70 |
| O=C1NCC2(CCN(C(=O)c3cc4c(C(=O)NCC56CC7CC(CC(C7)C5)C6)cccn4n3)CC2)O1 [Compound 36, N-(adamantan-1-ylmethyl)-2-[(2-oxo-1-oxa-3,8-diazaspiro[4.5]dec-8-yl)carbonyl]pyrazolo [1,5-a]pyridine-4-carboxamide] | ≥ 5.70 |
| CC(C)CC(CNC(=O)c1cccn2nc(C(=O)N3CCC[C@@H](N)C3)cc12)c1ccccc1 (stereo partly drawn) [Compound 43, 2-{[(3R)-3-aminopiperidin-1-yl]carbonyl}-N-(4-methyl-2-phenylpentyl)pyrazolo [1,5-a]pyridine-4-carboxamide] | ≥ 5.70 |
| O=C(CC12CC3CC(CC(C3)C1)C2)Nc1cccn2nc(C(=O)N3CCn4cncc4C3)cc12 [Compound 97, 2-adamantan-1-yl-N-[2-(5,6-dihydroimidazo[1,5-a]pyrazin-7(8H)-ylcarbonyl)pyrazolo [1,5-a]pyridin-4-yl]acetamide] | ≥ 5.70 |
| CN(Cc1ccc(F)cc1)C(=O)c1cc2c(C(=O)NCC34CC5CC(CC(C5)C3)C4)cccn2n1 [Compound 67, 4-N-(adamantan-1-ylmethyl)-2-N-(4-fluorobenzyl)-2-N-methylpyrazolo[1,5-a]pyridine-2,4-dicarboxamide] | ≥ 5.70 |
| N[C@@H]1CCCN(C(=O)c2cc3c(C(=O)NCC45CC6CC(CC(C6)C4)C5)cccn3n2)C1 [Compound 17, N-(adamantan-1-ylmethyl)-2-{[(3R)-3-aminopiperidin-1-yl]carbonyl}pyrazolo [1,5-a]pyridine-4-carboxamide] | ≥ 5.70 |
| COCCNC(=O)c1cc2c(C(=O)NCC34CC5CC(CC(C5)C3)C4)cccn2n1 [Compound 42, 4-N-(adamantan-1-ylmethyl)-2-N-(2-methoxyethyl)pyrazolo [1,5-a]pyridine-2,4-dicarboxamide] | ≥ 5.70 |
| NC(=O)c1ccc(-c2cc3c(C(=O)NCC45CC6CC(CC(C6)C4)C5)cccn3c2)cc1 [Compound 112, N-(adamantan-1-ylmethyl)-2-(4-carbamoylphenyl) indolizine-8-carboxamide] | ≥ 5.70 |
| O=C(Cc1cc2c(C(=O)NCC34CC5CC(CC(C5)C3)C4)cccn2n1)NCC(F)(F)F [Compound 61, N-(adamantan-1-ylmethyl)-2-{2-oxo-2-[(2,2,2-trifluoroethyl)amino]ethyl}pyrazolo[1,5-a]pyridine-4-carboxamide] | ≥ 5.70 |
| O=C(NC1CCOCC1)c1cc2c(C(=O)NCC34CC5CC(CC(C5)C3)C4)cccn2n1 [Compound 35, 4-N-(adamantan-1-ylmethyl)-2-N-(tetrahydro-2H-pyran-4-yl)pyrazolo[1,5-a]pyridine-2,4-dicarboxamide] | ≥ 5.70 |
| CN(Cc1ccccn1)Cc1cc2c(C(=O)NCC34CC5CC(CC(C5)C3)C4)cccn2n1 [Compound 53, N-(adamantan-1-ylmethyl)-2-{[methyl(pyridin-2-ylmethyl)amino]methyl} pyrazolo[1,5-a]pyridine-4-carboxamide] | ≥ 5.70 |
| O=C(NCC12CC3CC(CC(C3)C1)C2)c1cccn2nc(C(=O)N3CCn4cncc4C3)cc12 [Compound 20, N-(adamantan-1-ylmethyl)-2-(5,6-dihydroimidazo[1,5-a]pyrazin-7(8H)-ylcarbonyl)pyrazolo [1,5-a]pyridine-4-carboxamide] | ≥ 5.70 |
| CN(Cc1ccncc1)C(=O)c1cc2c(C(=O)NCC34CC5CC(CC(C5)C3)C4)cccn2n1 [Compound 33, 4-N-(adamantan-1-ylmethyl)-2-N-methyl-2-N-(pyridin-4-ylmethyl)pyrazolo[1,5-a]pyridine-2,4-dicarboxamide] | ≥ 5.70 |
| CC(C)CC(CNC(=O)c1cccn2nc(C(=O)N(C)CCF)cc12)c1ccc(Cl)cc1 (stereo not shown) [Compound 92, Pyrazolo[1,5-a]pyridine-2,4-dicarboxylic acid 4-{[2-(4-chloro-phenyl)-4-methyl-pentyl]-amide} 2-[(2-fluoro-ethyl)-methyl-amide]] | ≥ 5.70 |
| N[C@@H]1CCN(C(=O)c2cc3c(C(=O)NCC4(c5ccc(Cl)cc5)CCCCC4)cccn3n2)C1 [Compound 90, 2-{[(3R)-3-aminopyrrolidin-1-yl]carbonyl}-N-{[1-(4-chlorophenyl)cyclohex-yl]methyl}pyrazolo[1,5-a]pyridine-4-carboxamide] | ≥ 5.70 |

Next, values leading:

| pIC50 | Compound |
| --- | --- |
| ≥ 5.70 | NC(=O)c1ccc(C(=O)c2ccc3c(C(=O)NCC45CC6CC(CC(C6)C4)C5)cccn23)cc1 [Compound 110, N-(adamantan-1-ylmethyl)-3-(4-carbamoylbenzoyl) indolizine-8-carboxamide] |
| ≥ 5.70 | O=C(NCC12CC3CC(CC(C3)C1)C2)c1cccn2nc(C(=O)N3CCOCC3)cc12 [Compound 22, N-(adamantan-1-ylmethyl)-2-(morpholin-4-ylcarbonyl)pyrazolo [1,5-a]pyridine-4-carboxamide] |
| ≥ 5.70 | CC(C)CC(CNC(=O)c1cccn2nc(C(=O)N(C)CCF)cc12)c1ccc(C(F)(F)F)cc1 (stereo not shown) [Compound 86, 2-N-(2-fluoroethyl)-2-N-methyl-4-N-{4-methyl-2-[4-(trifluoromethyl)phenyl]pentyl}pyrazolo[1,5-a]pyridine-2,4-dicarboxamide] |
| ≥ 5.70 | CC(C)CC(CNC(=O)c1cccn2nc(C(=O)N3CC[C@@H](N)C3)cc12)c1ccc(C(F)(F)F)cc1 (stereo partly drawn) [Compound 80, 2-{[(3R)-3-aminopyrrolidin-1-yl]carbonyl}-N-{4-methyl-2-[4-(trifluoromethyl)phenyl]pentyl}pyrazolo[1,5-a]pyridine-4-carboxamide] |
| ≥ 5.70 | N[C@@H]1CCN(C(=O)c2cc3c(C(=O)NCC(CC4CCCCC4)c4ccccc4)cccn3n2)C1 (stereo partly drawn) [Compound 72, 2-{[(3R)-3-aminopyrrolidin-1-yl]carbonyl}-N-(3-cyclohexyl-2-phenylpropyl)pyrazolo [1,5-a]pyridine-4-carboxamide] |
| ≥ 5.70 | CN(Cc1cccnc1)C(=O)c1cc2c(C(=O)NCC34CC5CC(CC(C5)C3)C4)cccn2n1 [Compound 21, 4-N-(adamantan-1-ylmethyl)-2-N-methyl-2-N-(pyridin-3-ylmethyl)pyrazolo[1,5-a]pyridine-2,4-dicarboxamide] |
| ≥ 5.70 | O=C(NCC(F)F)c1cc2c(C(=O)NCC34CC5CC(CC(C5)C3)C4)cccn2n1 [Compound 63, 4-N-(adamantan-1-ylmethyl)-2-N-(2,2-difluoroethyl)pyrazolo [1,5-a]pyridine-2,4-dicarboxamide] |
| ≥ 5.70 | O=C(NCC(F)(F)F)c1cc2c(C(=O)NCC34CC5CC(CC(C5)C3)C4)cccn2n1 [Compound 64, 4-N-(adamantan-1-ylmethyl)-2-N-(2,2,2-trifluoroethyl)pyrazolo [1,5-a]pyridine-2,4-dicarboxamide] |
| ≥ 5.70 | CN(Cc1cnccn1)Cc1cc2c(C(=O)NCC34CC5CC(CC(C5)C3)C4)cccn2n1 [Compound 55, N-(adamantan-1-ylmethyl)-2-{[methyl(pyrazin-2-ylmethyl)amino]methyl} pyrazolo[1,5-a]pyridine-4-carboxamide] |
